Where a name gives a salt, the structure may show the parent alone. Read-outs that look alike come from different tables or passages of the source.
Tests used:
Assay type in all cases: biochemical
[1] = target: PI3Kγ (Homo sapiens (Human), UniProt P48736); experiment: TR-FRET enzymatic assay of PI3K isoforms (PI3Kγ); details: read-out: γ IC50
Description: (§1) The compounds of formula (I) were characterized for their enzymatic activity against the PI3K isoforms. Certain compounds of the present application, including certain compounds of formula (II) and (III) were also characterized for their enzymatic activity against PI3K isoforms. The activities were measured using a time-resolved fluorescence resonance energy transfer (TR-FRET) assay.

[2] = target: PI3Kδ (Homo sapiens (Human), UniProt O00329); experiment: TR-FRET enzymatic assay of PI3K isoforms (PI3Kδ); details: 2×Km ATP, 2 μM PIP2, incubated for 30 minutes at 25° C., read-out: δ IC50
Description: as §1

[3] = target: PI3Kβ (Homo sapiens (Human), UniProt P42338); experiment: TR-FRET enzymatic assay of PI3K isoforms (PI3Kβ); details: TR-FRET, 2×Km ATP, 2 μM PIP2, incubated for 30 minutes at 25° C.; read-out: β IC50
Description: as §1

[4] = TR-FRET, 2×Km ATP, 2 μM PIP2, PI3Kγ at 2 nM, incubated for 30 minutes at 25° C.

Sequence of PI3Kδ (O00329 whole entry, canonical isoform): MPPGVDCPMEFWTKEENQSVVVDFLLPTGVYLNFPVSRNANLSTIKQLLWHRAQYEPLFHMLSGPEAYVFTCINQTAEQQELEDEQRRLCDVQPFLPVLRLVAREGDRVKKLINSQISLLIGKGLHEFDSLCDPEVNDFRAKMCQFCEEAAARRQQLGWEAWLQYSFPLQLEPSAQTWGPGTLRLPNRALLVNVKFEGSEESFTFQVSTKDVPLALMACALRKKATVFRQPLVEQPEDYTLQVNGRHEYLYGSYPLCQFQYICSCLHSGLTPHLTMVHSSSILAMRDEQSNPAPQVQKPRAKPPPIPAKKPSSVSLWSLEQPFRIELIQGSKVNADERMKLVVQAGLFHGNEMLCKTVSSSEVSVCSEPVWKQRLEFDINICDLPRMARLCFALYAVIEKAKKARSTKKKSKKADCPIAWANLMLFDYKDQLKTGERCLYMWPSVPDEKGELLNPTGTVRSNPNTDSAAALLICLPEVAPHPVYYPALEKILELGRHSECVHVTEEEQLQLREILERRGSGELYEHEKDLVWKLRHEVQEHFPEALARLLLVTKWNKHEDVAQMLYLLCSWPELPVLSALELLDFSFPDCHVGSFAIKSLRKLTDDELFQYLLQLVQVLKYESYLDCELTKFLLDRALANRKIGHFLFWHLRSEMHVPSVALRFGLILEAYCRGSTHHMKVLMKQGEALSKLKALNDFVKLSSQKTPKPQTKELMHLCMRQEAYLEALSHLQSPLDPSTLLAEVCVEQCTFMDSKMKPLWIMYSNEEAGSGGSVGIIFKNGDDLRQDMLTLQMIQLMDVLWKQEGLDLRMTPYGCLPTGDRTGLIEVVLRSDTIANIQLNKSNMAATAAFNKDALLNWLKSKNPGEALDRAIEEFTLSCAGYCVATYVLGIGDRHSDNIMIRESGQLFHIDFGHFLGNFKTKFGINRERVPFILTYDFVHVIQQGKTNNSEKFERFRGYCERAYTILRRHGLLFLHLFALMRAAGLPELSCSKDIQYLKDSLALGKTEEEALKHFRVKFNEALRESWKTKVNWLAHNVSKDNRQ
Sequence of PI3Kδ (P27986 whole entry partner, canonical isoform): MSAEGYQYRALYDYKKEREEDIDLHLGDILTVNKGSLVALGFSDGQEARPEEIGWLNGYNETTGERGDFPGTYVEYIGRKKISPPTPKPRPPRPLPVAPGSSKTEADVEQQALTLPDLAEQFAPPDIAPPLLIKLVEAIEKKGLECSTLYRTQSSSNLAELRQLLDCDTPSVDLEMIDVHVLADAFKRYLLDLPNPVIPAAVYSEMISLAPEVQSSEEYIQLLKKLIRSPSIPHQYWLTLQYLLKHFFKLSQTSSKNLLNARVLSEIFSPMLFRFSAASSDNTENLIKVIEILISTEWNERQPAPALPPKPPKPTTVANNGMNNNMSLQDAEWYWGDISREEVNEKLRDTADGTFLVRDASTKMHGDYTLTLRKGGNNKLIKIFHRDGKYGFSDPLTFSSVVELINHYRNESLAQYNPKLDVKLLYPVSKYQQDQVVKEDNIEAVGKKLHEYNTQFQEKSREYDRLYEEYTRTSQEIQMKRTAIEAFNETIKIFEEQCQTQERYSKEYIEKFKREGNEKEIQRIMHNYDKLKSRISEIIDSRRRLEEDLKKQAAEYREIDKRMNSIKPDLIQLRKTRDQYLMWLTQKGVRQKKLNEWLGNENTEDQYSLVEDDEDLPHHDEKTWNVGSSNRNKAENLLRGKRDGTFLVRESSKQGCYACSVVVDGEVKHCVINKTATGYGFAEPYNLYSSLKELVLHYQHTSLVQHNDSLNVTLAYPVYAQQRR
Sequence of PI3Kβ (P42338 whole entry, canonical isoform): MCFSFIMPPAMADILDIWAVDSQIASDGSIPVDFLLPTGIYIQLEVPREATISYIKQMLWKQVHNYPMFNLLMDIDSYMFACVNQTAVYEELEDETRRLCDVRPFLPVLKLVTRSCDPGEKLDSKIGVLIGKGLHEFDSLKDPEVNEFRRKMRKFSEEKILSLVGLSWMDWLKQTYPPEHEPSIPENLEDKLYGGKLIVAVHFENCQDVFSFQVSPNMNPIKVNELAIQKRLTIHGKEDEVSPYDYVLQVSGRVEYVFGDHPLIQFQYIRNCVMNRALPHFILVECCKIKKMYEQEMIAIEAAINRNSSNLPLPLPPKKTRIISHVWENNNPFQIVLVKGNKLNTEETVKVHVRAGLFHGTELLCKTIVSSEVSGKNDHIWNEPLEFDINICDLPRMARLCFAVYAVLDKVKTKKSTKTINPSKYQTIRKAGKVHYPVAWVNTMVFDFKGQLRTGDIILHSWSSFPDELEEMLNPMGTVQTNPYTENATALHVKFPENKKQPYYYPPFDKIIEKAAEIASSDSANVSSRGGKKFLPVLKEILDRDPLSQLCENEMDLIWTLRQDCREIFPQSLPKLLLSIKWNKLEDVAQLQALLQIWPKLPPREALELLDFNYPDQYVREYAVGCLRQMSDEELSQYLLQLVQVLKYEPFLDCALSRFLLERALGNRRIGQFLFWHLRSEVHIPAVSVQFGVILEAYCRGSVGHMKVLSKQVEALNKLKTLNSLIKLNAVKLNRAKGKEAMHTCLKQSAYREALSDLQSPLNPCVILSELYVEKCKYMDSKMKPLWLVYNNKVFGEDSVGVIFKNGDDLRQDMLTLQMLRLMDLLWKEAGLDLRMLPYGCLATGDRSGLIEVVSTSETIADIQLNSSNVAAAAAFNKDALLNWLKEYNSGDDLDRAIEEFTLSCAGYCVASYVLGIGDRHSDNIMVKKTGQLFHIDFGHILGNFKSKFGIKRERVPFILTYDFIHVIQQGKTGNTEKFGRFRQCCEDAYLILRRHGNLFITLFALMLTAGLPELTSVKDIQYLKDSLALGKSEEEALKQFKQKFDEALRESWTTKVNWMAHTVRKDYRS
Sequence of PI3Kβ (P27986 whole entry partner, canonical isoform): as the sequence (P27986 whole entry partner, canonical isoform) above
Sequence of PI3Kγ (P48736 whole entry, canonical isoform): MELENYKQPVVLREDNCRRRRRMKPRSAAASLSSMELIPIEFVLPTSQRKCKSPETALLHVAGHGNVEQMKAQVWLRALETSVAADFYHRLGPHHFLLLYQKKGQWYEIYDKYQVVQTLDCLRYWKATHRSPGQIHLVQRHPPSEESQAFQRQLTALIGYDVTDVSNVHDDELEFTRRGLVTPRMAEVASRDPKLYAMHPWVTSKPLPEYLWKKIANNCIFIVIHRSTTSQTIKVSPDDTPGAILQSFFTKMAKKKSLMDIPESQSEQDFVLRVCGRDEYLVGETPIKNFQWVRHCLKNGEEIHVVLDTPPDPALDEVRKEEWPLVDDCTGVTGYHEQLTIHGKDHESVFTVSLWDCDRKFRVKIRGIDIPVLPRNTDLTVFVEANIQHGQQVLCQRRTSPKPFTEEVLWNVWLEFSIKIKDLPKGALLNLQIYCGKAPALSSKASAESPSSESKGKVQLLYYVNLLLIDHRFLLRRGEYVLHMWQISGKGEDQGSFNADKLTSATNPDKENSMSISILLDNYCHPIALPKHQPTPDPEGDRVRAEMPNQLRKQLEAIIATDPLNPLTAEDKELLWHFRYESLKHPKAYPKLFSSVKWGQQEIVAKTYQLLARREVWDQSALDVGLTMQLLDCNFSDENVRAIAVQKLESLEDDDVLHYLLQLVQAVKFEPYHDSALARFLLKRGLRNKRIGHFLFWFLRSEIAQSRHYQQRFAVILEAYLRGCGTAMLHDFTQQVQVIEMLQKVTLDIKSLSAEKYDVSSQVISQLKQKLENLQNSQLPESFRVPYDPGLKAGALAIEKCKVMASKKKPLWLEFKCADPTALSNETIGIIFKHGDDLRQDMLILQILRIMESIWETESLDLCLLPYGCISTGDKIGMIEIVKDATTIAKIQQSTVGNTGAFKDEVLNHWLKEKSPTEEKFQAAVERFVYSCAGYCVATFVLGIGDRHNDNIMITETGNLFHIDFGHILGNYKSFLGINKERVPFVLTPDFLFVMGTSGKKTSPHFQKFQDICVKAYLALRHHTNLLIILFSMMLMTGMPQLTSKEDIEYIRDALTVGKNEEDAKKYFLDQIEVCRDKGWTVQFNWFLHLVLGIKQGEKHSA
Sequence of PI3Kγ (Q8WYR1 whole entry partner, canonical isoform): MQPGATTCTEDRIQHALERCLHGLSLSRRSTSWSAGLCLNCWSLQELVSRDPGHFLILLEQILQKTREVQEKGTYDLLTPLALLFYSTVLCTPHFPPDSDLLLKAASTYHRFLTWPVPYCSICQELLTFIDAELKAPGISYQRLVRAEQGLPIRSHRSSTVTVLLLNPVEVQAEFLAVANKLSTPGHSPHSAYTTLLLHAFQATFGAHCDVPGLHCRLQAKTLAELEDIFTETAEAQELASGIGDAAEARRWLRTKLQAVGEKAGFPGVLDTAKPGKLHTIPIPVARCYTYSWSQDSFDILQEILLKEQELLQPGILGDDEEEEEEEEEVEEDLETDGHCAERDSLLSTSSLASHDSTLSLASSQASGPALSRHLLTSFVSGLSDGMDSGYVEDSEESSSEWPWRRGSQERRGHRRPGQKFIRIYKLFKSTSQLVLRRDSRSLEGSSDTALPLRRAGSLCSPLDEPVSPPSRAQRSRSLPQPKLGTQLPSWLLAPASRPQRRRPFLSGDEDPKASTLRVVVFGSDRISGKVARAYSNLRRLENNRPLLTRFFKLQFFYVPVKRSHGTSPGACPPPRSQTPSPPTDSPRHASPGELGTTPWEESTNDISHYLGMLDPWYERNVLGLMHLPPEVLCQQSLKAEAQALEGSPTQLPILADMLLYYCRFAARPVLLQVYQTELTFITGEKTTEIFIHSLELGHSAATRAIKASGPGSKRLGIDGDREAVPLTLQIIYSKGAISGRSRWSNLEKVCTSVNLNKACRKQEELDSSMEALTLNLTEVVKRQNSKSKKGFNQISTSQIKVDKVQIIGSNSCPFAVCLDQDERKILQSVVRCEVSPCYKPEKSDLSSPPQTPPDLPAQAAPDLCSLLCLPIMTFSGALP

| SMILES | IC50 [1, 4] [nM] | IC50 [2] [nM] | IC50 [3] [nM] | IC50 [1] [nM] |
| --- | --- | --- | --- | --- |
| C[C@H](Nc1ncnc2[nH]cnc12)c1nc2cccc(Cl)c2c(=O)n1-c1cccc(NC(=O)Nc2c(Cl)cccc2Cl)c1 [Compound 104, (S)-1-(3-(2-(1-((9H-purin-6-yl)amino)ethyl)-5-chloro-4-oxoquinazolin-3(4H)-yl)phenyl)-3-(2,6-dichlorophenyl)urea] | 740 | 30 | 8 | – |
| C[C@H](Nc1ncnc(N)c1C#N)c1nc2cccc(Cl)c2c(=O)n1-c1cccc(NC(=O)Nc2ccncc2Cl)c1 [Compound 111, (S)-1-(3-(2-(1-((6-amino-5-cyanopyrimidin-4-yl)amino)ethyl)-5-chloro-4-oxoquinazolin-3(4H)-yl)phenyl)-3-(3-chloropyridin-4-yl)urea, trifluoroacetic acid salt] | 4300 | 7 | 4 | – |
| C[C@H](Nc1ncnc2[nH]cnc12)c1nc2cccc(Cl)c2c(=O)n1-c1cccc(NC(=O)Nc2ccncc2Cl)c1 [Compound 112, (S)-1-(3-(2-(1-((9H-purin-6-yl)amino)ethyl)-5-chloro-4-oxoquinazolin-3(4H)-yl)phenyl)-3-(3-chloropyridin-4-yl)urea] | 1600 | 26 | 6 | – |
| C[C@H](Nc1ncnc(N)c1C#N)c1nc2cccc(Cl)c2c(=O)n1-c1cccc(NC(=O)Nc2nnn[nH]2)c1 [Compound 114, (S)-1-(3-(2-(1-((6-amino-5-cyanopyrimidin-4-yl)amino)ethyl)-5-chloro-4-oxoquinazolin-3(4H)-yl)phenyl)-3-(1H-tetrazol-5-yl)urea] | 3800 | 10 | 37 | – |
| CONC(=O)Nc1cccc(-n2c([C@H](C)Nc3ncnc(N)c3C#N)nc3cccc(Cl)c3c2=O)c1 [Compound 115, (S)-1-(3-(2-(1-((6-amino-5-cyanopyrimidin-4-yl)amino)ethyl)-5-chloro-4-oxoquinazolin-3(4H)-yl)phenyl)-3-methoxyurea] | 3700 | 5 | 14 | – |
| C[C@H](Nc1ncnc(N)c1C#N)c1nc2cccc(Cl)c2c(=O)n1-c1cccc(NC(=O)NCCN(C)C)c1 [Compound 116, (S)-1-(3-(2-(1-((6-amino-5-cyanopyrimidin-4-yl)amino)ethyl)-5-chloro-4-oxoquinazolin-3(4H)-yl)phenyl)-3-(2-(dimethylamino)ethyl)urea, trifluoroacetic acid salt] | > 10000 | 4 | 2 | – |
| C[C@H](Nc1ncnc(N)c1C#N)c1nc2cccc(Cl)c2c(=O)n1-c1cccc(NC(=O)NCCO)c1 [Compound 117, (S)-1-(3-(2-(1-((6-amino-5-cyanopyrimidin-4-yl)amino)ethyl)-5-chloro-4-oxoquinazolin-3(4H)-yl)phenyl)-3-(2-hydroxyethyl)urea] | 8300 | 6 | 4 | – |
| C[C@H](Nc1ncnc(N)c1C#N)c1nc2cccc(Cl)c2c(=O)n1-c1cccc(NC(=O)Nc2cccnc2)c1 [Compound 119, (S)-1-(3-(2-(1-((6-amino-5-cyanopyrimidin-4-yl)amino)ethyl)-5-chloro-4-oxoquinazolin-3(4H)-yl)phenyl)-3-(pyridin-3-yl)urea, trifluoroacetic acid salt] | 1400 | 5 | 3 | – |
| CC(C)NC(=O)Nc1cccc(-n2c([C@H](C)Nc3ncnc(N)c3C#N)nc3cccc(Cl)c3c2=O)c1 [Compound 120, (S)-1-(3-(2-(1-((6-amino-5-cyanopyrimidin-4-yl)amino)ethyl)-5-chloro-4-oxoquinazolin-3(4H)-yl)phenyl)-3-isopropylurea] | 4800 | 7 | 9 | – |
| C[C@H](Nc1ncnc(N)c1C#N)c1nc2cccc(Cl)c2c(=O)n1-c1cccc(NC(=O)NC2CCCC2)c1 [Compound 121, (S)-1-(3-(2-(1-((6-amino-5-cyanopyrimidin-4-yl)amino)ethyl)-5-chloro-4-oxoquinazolin-3(4H)-yl)phenyl)-3-cyclopentylurea] | 1600 | 3 | 3 | – |
| C[C@H](Nc1ncnc(N)c1C#N)c1nc2cccc(Cl)c2c(=O)n1-c1cccc(NC(=O)NC2CCCCC2)c1 [Compound 122, (S)-1-(3-(2-(1-((6-amino-5-cyanopyrimidin-4-yl)amino)ethyl)-5-chloro-4-oxoquinazolin-3(4H)-yl)phenyl)-3-cyclohexylurea] | 2000 | 4 | 3 | – |

Next, values leading:

| IC50 [1, 4] [nM] | IC50 [2] [nM] | IC50 [3] [nM] | IC50 [1] [nM] | SMILES |
| --- | --- | --- | --- | --- |
| 670 | 31 | 7 | – | C[C@H](Nc1ncnc2[nH]cnc12)c1nc2cccc(Cl)c2c(=O)n1-c1cccc(NC(=O)Nc2ccccc2C(F)(F)F)c1 [Compound 102, (S)-1-(3-(2-(1-((9H-purin-6-yl)amino)ethyl)-5-chloro-4-oxoquinazolin-3(4H)-yl)phenyl)-3-(2-(trifluoromethyl)phenyl)urea] |
| – | 20 | 4800 | > 10000 | C[C@H](Nc1ncnc(N)c1C#N)c1nc2cccc(Cl)c2c(=O)n1-c1cccc(NC(=O)Nc2ccccc2C#N)c1 [Compound 106, (S)-1-(3-(2-(1-((6-amino-5-cyanopyrimidin-4-yl)amino)ethyl)-5-chloro-4-oxoquinazolin-3(4H)-yl)phenyl)-3-(2-cyanophenyl)urea] |
| 1500 | 6 | 16 | – | Cc1ccccc1NC(=O)Nc1cccc(-n2c([C@H](C)Nc3ncnc(N)c3C#N)nc3cccc(Cl)c3c2=O)c1 [Compound 107, (S)-1-(3-(2-(1-((6-amino-5-cyanopyrimidin-4-yl)amino)ethyl)-5-chloro-4-oxoquinazolin-3(4H)-yl)phenyl)-3-(o-tolyl)urea] |
| 8500 | 24 | 3 | – | C[C@H](Nc1ncnc(N)c1C#N)c1nc2cccc(F)c2c(=O)n1-c1cccc(NC(=O)Nc2ccccc2Cl)c1 [Compound 108, (S)-1-(3-(2-(1-((6-amino-5-cyanopyrimidin-4-yl)amino)ethyl)-5-fluoro-4-oxoquinazolin-3(4H)-yl)phenyl)-3-(2-chlorophenyl)urea] |
| 2600 | 2 | 9 | – | COc1ccccc1NC(=O)Nc1cccc(-n2c([C@H](C)Nc3ncnc(N)c3C#N)nc3cccc(Cl)c3c2=O)c1 [Compound 109, (S)-1-(3-(2-(1-((6-amino-5-cyanopyrimidin-4-yl)amino)ethyl)-5-chloro-4-oxoquinazolin-3(4H)-yl)phenyl)-3-(2-methoxyphenyl)urea] |
| > 10000 | 57 | 16 | – | C[C@H](Nc1ncnc(N)c1C#N)c1nc2cccc(F)c2c(=O)n1-c1cccc(NC(=O)Nc2ccccc2C(F)(F)F)c1 [Compound 110, (S)-1-(3-(2-(1-((6-amino-5-cyanopyrimidin-4-yl)amino)ethyl)-5-fluoro-4-oxoquinazolin-3(4H)-yl)phenyl)-3-(2-(trifluoromethyl)phenyl)urea] |
| 1000 | 8 | 3 | – | C[C@H](Nc1ncnc(N)c1C#N)c1nc2cccc(Cl)c2c(=O)n1-c1cccc(NC(=O)Nc2ccccc2)c1 [Compound 118, (S)-1-(3-(2-(1-((6-amino-5-cyanopyrimidin-4-yl)amino)ethyl)-5-chloro-4-oxoquinazolin-3(4H)-yl)phenyl)-3-phenylurea] |

Reference: patent US10221197B2, “Phosphatidylinositol 3-kinase inhibitors” (Gilead Sciences, Inc., priority 2014, dated 2019)
